Assay results from patent US20250250230A1, “HETEROCYCLIC COMPOUND” (TAKEDA PHARMACEUTICAL COMPANY LIMITED, priority 2022, published 2025).

molecular target: T1, human orexin type 2 receptor (Homo sapiens, UniProt O43614); test: Measurement of orexin type 2 receptor agonist activity (calcium fluorescence, Fluo-4 AM, FDSS); format: cell-based; details: test compound 3 μM; CHO cells expressing human OX2 receptor; DMSO = 0%, orexin A (human) = 100%
T1 construct: expressed in transfected cells
T1 sequence (O43614 1-444): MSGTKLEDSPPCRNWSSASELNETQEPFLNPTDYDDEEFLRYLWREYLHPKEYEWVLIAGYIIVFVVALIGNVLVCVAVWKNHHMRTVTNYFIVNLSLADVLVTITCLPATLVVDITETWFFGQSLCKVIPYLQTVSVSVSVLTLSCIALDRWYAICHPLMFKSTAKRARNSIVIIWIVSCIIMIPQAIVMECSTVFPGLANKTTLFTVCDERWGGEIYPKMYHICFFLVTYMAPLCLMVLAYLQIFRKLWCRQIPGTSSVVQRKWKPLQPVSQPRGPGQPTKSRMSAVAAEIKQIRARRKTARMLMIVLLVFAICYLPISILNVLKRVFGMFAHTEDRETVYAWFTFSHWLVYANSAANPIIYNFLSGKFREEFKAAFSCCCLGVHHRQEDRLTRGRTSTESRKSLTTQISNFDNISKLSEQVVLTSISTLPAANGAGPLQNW
Method in brief: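 CHO-K1 cells stably expressing human OX2R were loaded with Fluo-4 AM (30 min 37 °C, 30 min RT) in HEPES-buffered HBSS with 0.1% BSA and probenecid. Calcium fluorescence was followed on FDSS for 2 min after compound addition; activity normalised to DMSO (0%) and 10 nM orexin A (100%).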

Going from `CS(=O)(=O)NC1CCN(C(=O)C2CC2c2c(F)cccc2-c2c(F)cccc2F)C1` (stereo not drawn) [Example 210, N-{1-[2-(2′,3,6′-trifluoro[1,1′-biphenyl]-2-yl)cyclopropane-1-carbonyl]pyrrolidin-3-yl}methanesulfonamide optical isomer] to `CS(=O)(=O)NC1CCCN(C(=O)C2CC2c2c(F)cccc2-c2c(F)cccc2F)C1` (stereo not drawn) [Example 211, N-{1-[2-(2′-3,6′-trifluoro[1,1′-biphenyl]-2-yl)cyclopropane-1-carbonyl]piperidin-3-yl}methanesulfonamide optical isomer], the “OX2R agonist activity (3 μM, %)” value rises from 94% to 105%.

First: CS(=O)(=O)N[C@@H]1CN(C(=O)C2CC2c2ccccc2-c2c(F)cccc2F)CCC1(F)F (stereo partly drawn) [Example 215, N-{(3R)-1-[(1R,2R)-2-(2′,6′-difluoro [1,1′-biphenyl]-2-yl)cyclopropane-1-carbonyl]-4,4-difluoropiperidin-3-yl}methanesulfonamide, or N-{(3R)-1-[(1S,2S)-2-(2′,6′-difluoro[1,1′-biphenyl]-2-yl)cyclopropane-1-carbonyl]-4,4-difluoropiperidin-3-yl}methanesulfonamide]
Second: CCS(=O)(=O)N[C@@H]1CN(C(=O)[C@@H]2C[C@H]2c2ccccc2-c2c(F)cccc2F)CCC1(F)F [Example 240, N-{(3R)-1-[(1R,2R)-2-(2′,6′-difluoro[1,1′-biphenyl]-2-yl)cyclopropane-1-carbonyl]-4,4-difluoropiperidin-3-yl}ethanesulfonamide]
The “OX2R agonist activity (3 μM, %)” value of the first is lower: 98% for the first, 100% for the second.

Compared with `CS(=O)(=O)N[C@@H]1CN(C(=O)C2CC2c2ccccc2-c2c(F)cccc2F)CC[C@@H]1F` (stereo partly drawn) [Example 216, N-{(3R,4S)-1-[(1R,2R)-2-(2′,6′-difluoro[1,1′-biphenyl]-2-yl)cyclopropane-1-carbonyl]-4-fluoropiperidin-3-yl}methanesulfonamide, or N-{(3R,4S)-1-[(1S,2S)-2-(2′,6′-difluoro[1,1′-biphenyl]-2-yl)cyclopropane-1-carbonyl]-4-fluoropiperidin-3-yl}methanesulfonamide], `CS(=O)(=O)N[C@@H]1CN(C(=O)[C@@H]2C[C@H]2c2ccccc2-c2c(F)cccc2F)C[C@@H]1F` [Example 241, N-{(3R,4S)-1-[(1R,2R)-2-(2′,6′-difluoro[1,1′-biphenyl]-2-yl)cyclopropane-1-carbonyl]-4-fluoropyrrolidin-3-yl}methanesulfonamide] is higher in “OX2R agonist activity (3 μM, %)” value: 99% for the first, 103% for the second.

Going from `CS(=O)(=O)NC1CN(C(=O)C2CC2c2c(F)cccc2-c2c(F)cccc2F)CC1(F)F` (stereo not drawn) [Example 226, N-{4,4-difluoro-1-[2-(2′,3,6′-trifluoro[1,1′-biphenyl]-2-yl)cyclopropane-1-carbonyl]pyrrolidin-3-yl}methanesulfonamide optical isomer] to `CS(=O)(=O)NC1CN(C(=O)C2CC2c2ccc(F)cc2-c2c(F)cccc2F)CC1(F)F` (stereo not drawn) [Example 245, N-{4,4-difluoro-1-[2-(2′,5,6′-trifluoro[1,1′-biphenyl]-2-yl)cyclopropane-1-carbonyl]pyrrolidin-3-yl}methanesulfonamide optical isomer], the “OX2R agonist activity (3 μM, %)” value falls from 104% to 103%.

First: CS(=O)(=O)N[C@H]1C[C@@H](F)CN(C(=O)[C@@H]2C[C@H]2c2ccccc2-c2c(F)cccc2F)C1 [Example 232, N-{(3S,5R)-1-[(1R,2R)-2-(2′,6′-difluoro[1,1′-biphenyl]-2-yl)cyclopropane-1-carbonyl]-5-fluoropiperidin-3-yl}methanesulfonamide]
Second: C[C@H]1C[C@H](NS(C)(=O)=O)CN1C(=O)[C@@H]1C[C@H]1c1ccccc1-c1c(F)cccc1F [Example 262, N-{(3S,5S)-1-[(1R,2R)-2-(2′,6′-difluoro[1,1′-biphenyl]-2-yl)cyclopropane-1-carbonyl]-5-methylpyrrolidin-3-yl}methanesulfonamide]
The “OX2R agonist activity (3 μM, %)” value of the first is lower: 103% for the first, 109% for the second.

Going from `CS(=O)(=O)NC1CCC2CN(C(=O)C3CC3c3ccccc3-c3c(F)cccc3F)CC21` (stereo not drawn) [Example 238, N-2-[(2-(2′,6′-difluoro[1,1′-biphenyl]-2-yl)cyclopropane-1-carbonyl]octahydrocyclopenta[c]pyrrol-4-yl}methanesulfonamide Optical Isomer] to `C[C@@H]1CN(C(=O)[C@@H]2C[C@H]2c2ccccc2-c2c(F)cccc2F)C[C@H]1NS(C)(=O)=O` [Example 264, N-{(3S,4R)-1-[(1R,2R)-2-(2′,6′-difluoro[1,1′-biphenyl]-2-yl)cyclopropane-1-carbonyl]-4-methylpyrrolidin-3-yl}methanesulfonamide], the “OX2R agonist activity (3 μM, %)” value falls from 98% to 97%.

Compared with `CCS(=O)(=O)N[C@H]1CCCN(C(=O)C2CC2c2ccccc2-c2c(F)cccc2F)C1` (stereo partly drawn) [Example 239, N-{(3S)-1-[(1R,2R)-2-(2′,6′-difluoro[1,1′-biphenyl]-2-yl)cyclopropane-1-carbonyl]piperidin-3-yl}ethanesulfonamide, or N-{(3S)-1-[(1S,2S)-2-(2′,6′-difluoro[1,1′-biphenyl]-2-cyclopropane-1-carbonyl]piperidin-3-yl}ethanesulfonamide], `CS(=O)(=O)NC1COCCN(C(=O)[C@@H]2C[C@H]2c2ccccc2-c2c(F)cccc2F)C1` (stereo partly drawn) [Example 249, N-{(6R)-4-[(1R,2R)-2-(2′,6′-difluoro[1,1′-biphenyl]-2-yl)cyclopropane-1-carbonyl]-1,4-oxazepan-6-yl}methanesulfonamide, or N-{(6S)-4-[(1R,2R)-2-(2′,6′-difluoro[1,1′-biphenyl]-2-yl)cyclopropane-1-carbonyl]-1,4-oxazepan-6-yl}methanesulfonamide] is higher in “OX2R agonist activity (3 μM, %)” value: 97% for the first, 105% for the second.

Going from `CC1(C(=O)N2CCC[C@H](NS(C)(=O)=O)CC2)CC1c1ccccc1-c1c(F)cccc1F` (stereo partly drawn) [Example 246, N-{(4S)-1-[(1R,2S)-2-(2′,6′-difluoro[1,1′-biphenyl]-2-yl)-1-methylcyclopropane-1-carbonyl]azepan-4-yl}methanesulfonamide, or N-{(4S)-1-[(1S,2R)-2-(2′,6′-difluoro[1,1′-biphenyl]-2-yl)-1-methylcyclopropane-1-carbonyl]azepan-4-yl}methanesulfonamide] to `CC1(C(=O)N2CC[C@H](NS(C)(=O)=O)C2)CC1c1ccccc1-c1c(F)cccc1F` (stereo partly drawn) [Example 247, N-{(3S)-1-[(1R,2S)-2-(2′,6′-difluoro[1,1′-biphenyl]-2-yl)-1-methylcyclopropane-1-carbonyl]pyrrolidin-3-yl}methanesulfonamide, or N-{(3S)-1-[(1S,2R)-2-(2′,6′-difluoro[1,1′-biphenyl]-2-yl)-1-methylcyclopropane-1-carbonyl]pyrrolidin-3-yl}methanesulfonamide], the “OX2R agonist activity (3 μM, %)” value rises from 78% to 100%.

Compared with `CC1(C(=O)N2CC(NS(C)(=O)=O)C(F)(F)C2)CC1c1ccccc1-c1c(F)cccc1F` (stereo not drawn) [Example 248, N-{1-[2-(2′,6′-difluoro[1,1′-biphenyl]-2-yl)-1-methylcyclopropane-1-carbonyl]-4,4-difluoropyrrolidin-3-yl}methanesulfonamide optical isomer], `C[C@H]1CN(C(=O)[C@@H]2C[C@H]2c2ccccc2-c2c(F)cccc2F)C[C@H]1NS(C)(=O)=O` [Example 265, N-{(3S,4S)-1-[(1R,2R)-2-(2′,6′-difluoro[1,1′-biphenyl]-2-yl)cyclopropane-1-carbonyl]-4-methylpyrrolidin-3-yl}methanesulfonamide] is lower in “OX2R agonist activity (3 μM, %)” value: 98% for the first, 86% for the second.

Going from `CN(C)S(=O)(=O)NCC1CCN1C(=O)C1CC1c1ccccc1-c1c(F)cccc1F` (stereo not drawn) [Example 250, N′-({1-[2-(2′,6′-difluoro[1,1′-biphenyl]-2-yl)cyclopropane-1-carbonyl]azetidin-2-yl}methyl)-N,N-dimethylsulfuric diamide optical isomer] to `CN(C)S(=O)(=O)NC[C@@H]1CCN1C(=O)[C@@H]1C[C@H]1c1ccccc1-c1c(F)cccc1F` [Example 259, N′-({(2S)-1-[(1R,2R)-2-(2′,6′-difluoro[1,1′-biphenyl]-2-yl)cyclopropane-1-carbonyl]azetidin-2-yl}methyl)-N,N-dimethylsulfuric Diamide], the “OX2R agonist activity (3 μM, %)” value falls from 104% to 98%.

Going from `C[C@@H]1C[C@H](NS(C)(=O)=O)CN1C(=O)[C@@H]1C[C@H]1c1ccccc1-c1c(F)cccc1F` [Example 263, N-{(3S,5R)-1-[(1R,2R)-2-(2′,6′-difluoro[1,1′-biphenyl]-2-yl)cyclopropane-1-carbonyl]-5-methylpyrrolidin-3-yl}methanesulfonamide] to `CS(=O)(=O)N[C@@H]1CN(C(=O)[C@@H]2C[C@H]2c2ccccc2-c2c(F)cccc2F)CC[C@H]1O` [Example 269, N-{(3R,4R)-1-[(1R,2R)-2-(2′,6′-difluoro[1,1′-biphenyl]-2-yl)cyclopropane-1-carbonyl]-4-hydroxypiperidin-3-yl}methanesulfonamide], the “OX2R agonist activity (3 μM, %)” value rises from 98% to 100%.
